Legend:
Settings in all cases: 72 h
SHI-1 [1] = experiment: cell viability (% survival relative to DMSO control, bortezomib = 0%); higher = less cytotoxic
In short: (§1)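 Fifteen myeloid leukaemia cell lines were exposed to compounds at 1, 10, 100, 1000 or 10000 nM in 384-well plates for 72 h at 37 °C and 5% CO2. Viability was read by CellTiter-Glo luminescence and normalised, with vehicle as 100% and a 10 µM positive control as 0%. Values are percent survival averaged over duplicates.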

HEL [2] = experiment: as above
In short: as §1

K-562 [3] = experiment: as above
In short: as §1

KU-812 [4] = experiment: as above
In short: as §1

KG-1 [5] = experiment: as above
In short: as §1

NOMO-1 [6] = experiment: as above
In short: as §1

KCL-22 [7] = experiment: as above
In short: as §1

LAMA-84 [8] = experiment: as above
In short: as §1

MV4-11 [9] = experiment: as above
In short: as §1

THP-1 [10] = experiment: as above
In short: as §1

BV-173 [11] = experiment: as above
In short: as §1

ML-2 [12] = experiment: as above
In short: as §1

Mono-Mac-6 [13] = experiment: as above
In short: as §1

MOLM-13 [14] = experiment: as above
In short: as §1

HL-60 [15] = experiment: as above
In short: as §1

SHI-1 [16] = test system: SHI-1
In short: (§2)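 For the IC50, dose–response curves were fitted with a log-logistic model. The data came from fifteen myeloid leukaemia cell lines grown in RPMI 1640 at densities in the linear growth range and incubated in 384-well plates for 72 h at 37 °C under 5% CO2. Doses were five tenfold steps from 1 to 10,000 nM in duplicate, and luminescent ATP viability was normalised to vehicle and to a positive control at 10 µM before four-parameter fitting.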

HEL [17] = test system: HEL
In short: as §2

K-562 [18] = test system: K-562
In short: as §2

KU-812 [19] = test system: KU-812
In short: as §2

KG-1 [20] = test system: KG-1
In short: as §2

NOMO-1 [21] = test system: NOMO-1
In short: as §2

KCL-22 [22] = test system: KCL-22
In short: as §2

LAMA-84 [23] = test system: LAMA-84
In short: as §2

MV4-11 [24] = test system: MV4-11
In short: as §2

THP-1 [25] = test system: THP-1
In short: as §2

BV-173 [26] = test system: BV-173
In short: as §2

ML-2 [27] = test system: ML-2
In short: as §2

Mono-Mac-6 [28] = test system: Mono-Mac-6
In short: as §2

MOLM-13 [29] = test system: MOLM-13
In short: as §2

HL-60 [30] = test system: HL-60
In short: as §2

OC[C@H]1NC[C@H](O)[C@@H](O)[C@@H]1O [Duvoglustat]
cell viability [%]
Settings | 1 nM | 10 nM | 100 nM | 1000 nM | 10000 nM
BV-173 [11] | 96.5 | 85.3 | 104 | 75.6 | 96.5
HEL [2] | 94.5 | 122 | 99.8 | 94.4 | 103
HL-60 [15] | 90.1 | 180 | 113 | 81 | 125
K-562 [3] | 90.3 | 94.7 | 100 | 88.2 | 105
KCL-22 [7] | 90.5 | 120 | 107 | 87 | 104
KG-1 [5] | 96.4 | 111 | 108 | 87.3 | 101
KU-812 [4] | 84.9 | 99.8 | 92.5 | 94.5 | 103
LAMA-84 [8] | 84.3 | 98 | 106 | 88.3 | 106
ML-2 [12] | 95.4 | 121 | 117 | 84.9 | 106
MOLM-13 [14] | 79.3 | 127 | 104 | 83.3 | 102
MV4-11 [9] | 93.3 | 108 | 92.8 | 92.6 | 113
Mono-Mac-6 [13] | 102 | 107 | 105 | 78.9 | 104
NOMO-1 [6] | 95.8 | 101 | 99.5 | 83.4 | 105
SHI-1 [1] | 103 | 121 | 109 | 88 | 108
THP-1 [10] | 96.6 | 92.3 | 109 | 84.6 | 101

Settings | IC50 (cell viability) [µM]
BV-173 [26] | > 10
HEL [17] | > 10
HL-60 [30] | > 10
K-562 [18] | > 10
KCL-22 [22] | > 10
KG-1 [20] | > 10
KU-812 [19] | > 10
LAMA-84 [23] | > 10
ML-2 [27] | > 10
MOLM-13 [29] | > 10
MV4-11 [24] | > 10
Mono-Mac-6 [28] | > 10
NOMO-1 [21] | > 10
SHI-1 [16] | > 10
THP-1 [25] | > 10

CCc1oc2ccccc2c1C(=O)c1cc(Br)c(O)c(Br)c1 [Benzbromarone]
cell viability [%]
Settings | 1 nM | 10 nM | 100 nM | 1000 nM | 10000 nM
BV-173 [11] | 106 | 94.1 | 117 | 95.9 | 127
HEL [2] | 92.3 | 101 | 101 | 89.8 | 122
HL-60 [15] | 88.5 | 88.1 | 136 | 94.1 | 104
K-562 [3] | 117 | 94.6 | 103 | 97.7 | 103
KCL-22 [7] | 108 | 90.7 | 91.5 | 90.2 | 124
KG-1 [5] | 95.7 | 97.7 | 102 | 94.1 | 102
KU-812 [4] | 100 | 95.2 | 97.9 | 87.4 | 104
LAMA-84 [8] | 103 | 98.7 | 96.3 | 96.1 | 107
ML-2 [12] | 99.6 | 96.6 | 109 | 93.4 | 109
MOLM-13 [14] | 101 | 101 | 91.3 | 90.8 | 136
MV4-11 [9] | 107 | 100 | 97 | 91.2 | 118
Mono-Mac-6 [13] | 102 | 95.3 | 106 | 102 | 126
NOMO-1 [6] | 95.1 | 103 | 94.8 | 93.9 | 109
SHI-1 [1] | 104 | 86 | 104 | 103 | 117
THP-1 [10] | 105 | 95.7 | 112 | 101 | 86.3

Settings | IC50 (cell viability) [µM]
BV-173 [26] | > 10
HEL [17] | > 10
HL-60 [30] | > 10
K-562 [18] | > 10
KCL-22 [22] | > 10
KG-1 [20] | > 10
KU-812 [19] | > 10
LAMA-84 [23] | > 10
ML-2 [27] | > 10
MOLM-13 [29] | > 10
MV4-11 [24] | > 10
Mono-Mac-6 [28] | > 10
NOMO-1 [21] | > 10
SHI-1 [16] | > 10
THP-1 [25] | > 10
